The text below walks through data of patent US10925846B2, “Phenylketone carboxylate compounds and pharmaceutical compositions for the prevention and treatment of osteoporosis” (Liminal BioSciences Limited, priority 2014, dated 2021).

For series [1], the system named is LPS-stimulated RAW264.7 cells. The experiment in a line: IL-12 production in LPS-stimulated RAW264.7 cells (IL-12 ELISA). The series is classed as cell-based, murine. How it is done:
Accordingly, RAW264.7 cells are cultured with 100 ng/mL of LPS in presence or absence of the compound(s) for 21 h in a humidified atmosphere of 95% air-5% carbon dioxide at 37° C. IL-12 concentration in the culture medium is measured using the IL-12 ELISA according to the manufacturer (BD Biosciences) recommendations. […] Accordingly, an in vitro IL-12 production assay was used for screening potential inhibitors of osteoclastogenesis.
(An ELISA detects its analyte on a solid surface through an enzyme-linked reagent.)

Series [2] concerns ovariectomized (OVX) rats. The series is described as follows: Ovariectomized-rat model of osteoporosis. Format: in vivo, Sprague Dawley rats. The source says: Although in comparison to humans, the skeletal mass of rats remains stable for a protracted period during their lifespan, rats can be ovariectomized to make them sex-hormone deficient, and to stimulate the accelerated loss of bone that occurs in women following menopause. Ovariectomy induced bone loss in the rat and postmenopausal bone loss share many similar characteristics. These include: increased rate of bone turnover with resorption exceeding formation; an initial rapid phase of bone loss followed by a much slower phase; greater loss of cancellous than cortical bone; decreased intestinal absorption of calcium; some protection against bone loss by obesity; and similar skeletal response to therapy with estrogen, tamoxifen, bisphosphonates, parathyroid hormone, calcitonin and exercise. These wide-ranging similarities are strong evidence that the ovariectomized rat bone loss model is suitable for studying problems that are relevant to postmenopausal bone loss.
Sprague Dawley rats (250 g) were ovariectomized (OVX) at day 0. Rats were treated by oral gavage with Compound I (10 mg/kg) from day 14 to day 68. Evaluation of different parameters (body weight, calcium loss, osteoclast markers (RANKL and TRAP mRNA expression), collagen content and histology was performed at day 68.

Series [3] relates to RAW264.7 cells. As to conditions: cited from earlier work.
Where [4] appears, read: compound concentration 0.020 mM.

SMILES strings stand for the structures.

In series [1] (compound concentration 0.0075 mM), `CCCCCCCCC(Oc1ccc(C(=O)CCCCCCC)cc1)C(=O)[O-].[Na+]` (racemic) [Compound I, Sodium (RS)-2-[4-Octanoylphenoxy]decanoate] gave an IL-12 of 112 pg/mL. For the same compound, the “body weight / ovariectomized-induced obesity” value in series [2] (10 mg/kg oral gavage day 14 to day 68, FIG. 1) is “reduced ovariectomized-induced obesity”. Besides, the “calcium loss in urine” value in series [2] (10 mg/kg oral gavage, day 28 to day 56, FIG. 2) is reported as “reduced significantly”. The “acid phosphatase activity in serum” value in series [2] (10 mg/kg oral gavage, day 28 to day 56, FIG. 3) is recorded as “reduced”. For the same compound, the “ratio of mRNA expression of RANKL/OPG in rat tibia” value in series [2] (10 mg/kg oral gavage, day 68, FIG. 4) was “decreased”. Further, in series [2] (10 mg/kg oral gavage, day 68, FIG. 5), the “collagen content in the metaphyse of the femur” value is on record as “increased”. The “bone loss in the metaphysis portion of the femur (histology)” value in series [2] (10 mg/kg oral gavage, day 68, FIGS. 6 and 7) is given as “reduced bone loss”.
Consider `CCCCCCCC(=O)c1cccc2c1CC(C(=O)[O-])C2.[Na+]` (racemic) [Compound III, Sodium (RS)-4-Octanoylindane-2-carboxylate], for which the IL-12 in series [1] (compound concentration 0.1 mM) is 24.95 pg/mL.
The term melting point denotes the temperature, or range, at which the solid turns liquid. Compound `CCCCCCCC(=O)c1ccc(OC(CCCCCC)C(=O)[O-])cc1.[Na+]` (racemic) [Compound IV, Sodium (RS)-2-[4-Octanoylphenoxy]octanoate] returned a melting point of 165 to 170 °C. This compound also registered an IL-12 in series [1] (setting [4]) of 12.13 pg/mL.
Turning to `CCCCCCCCC(Oc1ccc(C(=O)CCC)cc1)C(=O)[O-].[Na+]` (racemic) [Compound V, Sodium (RS)-2-[4-Butyrylphenoxy]decanoate], the melting point lay within 262 to 278 °C. The same compound registered an IL-12 in series [1] (compound concentration 0.040 mM) of 73.32 pg/mL.
As to `CCCCCCCCC(Oc1ccc(C(=O)CCCCC)cc1)C(=O)[O-].[Na+]` (racemic) [Compound VI, Sodium (RS)-2-[4-Hexanoylphenoxy]decanoate], the melting point was in the range of 275 to 280 °C. The compound further gave an IL-12 in series [1] (setting [4]) of 53.5 pg/mL.
The compound `CCCCCCCCC(Cc1ccc(C(=O)CCCCCCC)cc1)C(=O)[O-].[Na+]` (racemic) [Compound VII, Sodium (RS)-2-[4-Octanoylbenzyl]decanoate] gave an IL-12 in series [1] (compound concentration 0.012 mM) of 8 pg/mL.
For the compound `CCCCCCCCCC(=O)O` [capric acid], in series [3] (LPS-stimulated RAW264.7 cells), the IL-12 production entry is listed as “increases”. Also, the “LPS-upregulated iNOS mRNA levels and nitric oxide (NO) production” value in series [3] (LPS) is recorded as “inhibited”. Also, the “phosphatase (TRAP)-positive cells (osteoclast differentiation marker)” value in series [3] (RAW264.7 cells) is on record as “reduction”. For the same compound, in series [3], the “monocyte chemoattractant protein-1 (MCP-1) mRNA expression” value is recorded as “inhibited”.
